What was measured:
[1] = test system: ERα binding to ERE I, ERE II, and ERE III; details: reported ER ChIP studies (ref. 46); cited from earlier work
[2] = test system: TFF1 gene expression in MCF-7 cells; test: TFF1 expression by quantitative RT-PCR in MCF-7 cells transfected with TOX3 or vector control; details: for Effect on TFF1 expression compared to untreated control cells: MCF7 cells, normal culture conditions (not estrogen depleted); for TOX3 induction of TFF1 expression: resistant or sensitive to the drug: TOX3 transfected MCF7 cells, estrogen depleted medium, 36 hours
Procedure: Measurement of TFF1 induction by TOX3. […] MCF7 cells were transfected with a TOX3 expression vector or vector control, switched to estrogen depleted-medium after 8 hours in the presence or absence of the indicated drug, and analyzed by quantitative RT-PCR for TFF1 gene expression after an additional 36 hours in culture.

C[C@]12CC[C@@H]3c4ccc(O)cc4C[C@@H](CCCCCCCCC[S+]([O-])CCCC(F)(F)C(F)(F)F)[C@H]3[C@@H]1CC[C@@H]2O (stereo partly drawn) [fulvestrant]
ER binding at ERE I, II, and III sites upstream of TFF1 and TMPRSS3 [1]: residual binding
Effect on TFF1 expression compared to untreated control cells [2]: decrease
TOX3 induction of TFF1 expression: resistant or sensitive to the drug [2]: sensitive

CC/C(=C(\c1ccccc1)c1ccc(OCCN(C)C)cc1)c1ccccc1 [tamoxifen]
ER binding at ERE I, II, and III sites upstream of TFF1 and TMPRSS3 [1]: residual binding
Effect on TFF1 expression compared to untreated control cells [2]: decrease
TOX3 induction of TFF1 expression: resistant or sensitive to the drug [2]: resistant

Source: patent US20130225430A1, “METHODS AND COMPOSITIONS FOR TREATMENT OF TOX-3 AND TFF-1 MEDIATED CANCER PATHOGENESIS” (CEDARS-SINAI MEDICAL CENTER, priority 2012, published 2013)
